Source: patent US10072027B2, “Preparation of high-purity gadobutrol” (BAYER INTELLECTUAL PROPERTY GMBH, priority 2011, dated 2018)

Columns and labels:
Assay type in all cases: physicochemical
[1] = Solubility of polymorphs I and II in water; conditions: for Solubility in water: at 20° C. in water
[2] = Dissolution of the active compound during preparation of the pharmaceutical
Method: Differences between the two monohydrates I and II were observed during dissolution of the active compound. In general, the time required to get monohydrate I into solution is 45 minutes at 40-50° C.

[3] = Stability on storage under ICH conditions
Source text: Three batches of monohydrate I and one batch of monohydrate II were stored under ICH conditions. […] No decomposition products were observed, and no other parameters of the specification were changed substantially. On storage, the batches maintained their solid state.

[4] = 6 months at 40° C./75% relative atmospheric humidity
[5] = 36 months at 25° C./60% relative atmospheric humidity
[6] = 36 months at 30° C./75% relative atmospheric humidity

In the case of `O=C([O-])CN1CCN(CC(=O)[O-])CCN(C(CO)C(O)CO)CCN(CC(=O)[O-])CC1.[Gd+3]` (centres unmarked) [gadobutrol, Gd complex of N-(1-hydroxymethyl-2,3-dihydroxypropyl)-1,4,7-triscarboxymethyl-1,4,7,10-tetraazacyclododecane], the “Solubility in water (in words)” value ([1]; water) is reported as “soluble in water in almost any ratio”.
In the case of `O.O=C([O-])CN1CCN(CC(=O)[O-])CCN([C@H](CO)[C@H](O)CO)CCN(CC(=O)[O-])CC1.[Gd+3]` [monohydrate II], the “dissolution state during the time monohydrate I needs” value ([2]; 45 minutes at 40-50° C.) is reported as “incompletely dissolved”, the Solubility in water [1] is reported as 922 ± 9 mg/mL and the Stability on storage [3, 4] is reported as “remained unchanged”. The Stability on storage [3, 5] was “remained unchanged” and the Stability on storage [3, 6] was “remained unchanged”.
With `O.O=C([O-])CN1CCN(CC(=O)[O-])CCN([C@H](CO)[C@H](O)CO)CCN(CC(=O)[O-])CC1.[Gd+3]` [monohydrate I] the “time required to get into solution” value ([2]; at 40-50° C.) was 45 min, the Solubility in water [1] was 1081 ± 2 mg/mL and the Stability on storage [3, 4] was “remained unchanged”. The Stability on storage [3, 5] was “remained unchanged” and the Stability on storage [3, 6] was “remained unchanged”.
